Literature values as cited in PMC7388056 (Biomacromolecules, 2020).

Tested on: integrins

arginine–glycine–aspartic acid [RGD]
effectiveness relative to parent proteins, in words: orders-of-magnitude less effective than its parent proteins
